Holding throughout (type): biochemical
One assay deals with T1, HDAC6 enzyme (Homo sapiens, UniProt Q9UBN7).
T1 construct: transducing full length HDAC1 and HDAC6 genes into Sf-9 insect cells; GST; purchased SignalChem; host or cells: Sf-9 insect cells
T1 sequence (Q9UBN7 1-1215): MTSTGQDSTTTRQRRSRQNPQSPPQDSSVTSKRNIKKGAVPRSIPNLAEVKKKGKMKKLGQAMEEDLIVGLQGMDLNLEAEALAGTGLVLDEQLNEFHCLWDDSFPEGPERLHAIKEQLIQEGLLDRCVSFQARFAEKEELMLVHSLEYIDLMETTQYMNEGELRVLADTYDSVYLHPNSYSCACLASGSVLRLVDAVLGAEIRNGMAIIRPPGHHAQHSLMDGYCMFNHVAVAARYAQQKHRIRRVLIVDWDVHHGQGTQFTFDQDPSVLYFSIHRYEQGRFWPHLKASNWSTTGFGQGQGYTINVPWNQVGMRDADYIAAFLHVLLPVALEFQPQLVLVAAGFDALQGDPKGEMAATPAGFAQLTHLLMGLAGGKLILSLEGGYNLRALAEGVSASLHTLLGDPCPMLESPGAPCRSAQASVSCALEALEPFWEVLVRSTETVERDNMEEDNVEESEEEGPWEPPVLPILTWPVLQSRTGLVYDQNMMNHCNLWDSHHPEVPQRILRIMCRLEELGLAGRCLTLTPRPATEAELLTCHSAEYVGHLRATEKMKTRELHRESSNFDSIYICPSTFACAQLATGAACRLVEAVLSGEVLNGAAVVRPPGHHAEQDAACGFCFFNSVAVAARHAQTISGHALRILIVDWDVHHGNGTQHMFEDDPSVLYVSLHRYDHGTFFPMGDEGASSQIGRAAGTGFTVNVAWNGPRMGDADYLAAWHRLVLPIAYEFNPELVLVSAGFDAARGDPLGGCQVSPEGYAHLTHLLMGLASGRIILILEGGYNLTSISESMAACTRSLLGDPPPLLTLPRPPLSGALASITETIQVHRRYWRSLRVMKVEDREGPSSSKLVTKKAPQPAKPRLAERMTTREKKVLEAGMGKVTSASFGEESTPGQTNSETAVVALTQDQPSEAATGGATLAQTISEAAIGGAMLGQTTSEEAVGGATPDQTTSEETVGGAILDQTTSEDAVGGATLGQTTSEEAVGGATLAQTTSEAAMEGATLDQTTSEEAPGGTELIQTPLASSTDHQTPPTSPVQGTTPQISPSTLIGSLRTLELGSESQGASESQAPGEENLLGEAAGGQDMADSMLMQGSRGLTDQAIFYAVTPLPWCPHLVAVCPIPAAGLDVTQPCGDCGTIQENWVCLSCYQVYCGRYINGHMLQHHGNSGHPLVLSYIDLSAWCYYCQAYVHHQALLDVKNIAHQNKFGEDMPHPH
Nature of the assay: HDAC6 enzyme inhibitory assay (HDAC-Glo I/II Assay kit). Conditions: 1 μM test compound; wells without enzyme = 100% inhibition; read-out: HDAC6 inhibitory rate (%) (1 μM). As to the method: (§1) HDAC1/6 Enzyme Inhibitory Assay
(§2) HDAC1 enzyme and HDAC6 enzyme each prepared by transducing full length HDAC1 and HDAC6 genes into Sf-9 insect cells and purifying by GST affinity column were purchased from SignalChem. Using these enzymes, HDAC1 and/or HDAC6 enzyme inhibitory activities of the compound of the present invention were evaluated. Enzymes were used after preserved at −70° C. HDAC1 or HDAC6 enzyme inhibitory activity of the compound of the present invention was measured using HDAC-Glo™ I/II Assay kit (Promega) according to the following experimental method. The test compound diluted with assay buffer (24 mM Tris-HCl (pH 7.5), 1 mM MgCl2, 0.35 mM KCl, 135 mM NaCl, 0.6 mM Glutathione, 0.01% Tween-20) was added to a 384-well plate by each 2 μL. Then, HDAC1 or HDAC6 enzyme solution diluted with assay buffer was added thereto by each 4 μL, and the plate was incubated at room temperature for 60 min. After incubated, HDAC substrate-Developer solution prepared according to Promega protocol attached to the assay kit was added to the 384-well plate by each 2 μL, and the enzyme reaction was started. After reacting at room temperature for 20 min, luminescence level was measured using plate reader Envision (PerkinElmer). The inhibitory activity of each compound was calculated as a relative activity value when luminescence level in wells without enzyme is considered as 100% inhibition.

The next assay deals with T2, HDAC1 enzyme (Homo sapiens, UniProt Q13547).
T2 construct: transducing full length HDAC1 and HDAC6 genes into Sf-9 insect cells; GST; purchased SignalChem; host or cells: Sf-9 insect cells
Description: HDAC1 enzyme inhibitory assay (HDAC-Glo I/II Assay kit). Conditions: 1 μM test compound; wells without enzyme = 100% inhibition; read-out: HDAC1 inhibitory rate (%) (1 μM). As to the method: as §1, §2

The target of the next assay is T3, HDAC9 enzyme (Homo sapiens, UniProt Q9UKV0).
T3 construct: transducing full length HDAC9 gene into Sf-9 insect cells; made in house; host or cells: Sf-9 insect cells
Description: HDAC9 enzyme inhibitory assay (HDAC-Glo class IIa). The settings on record: 1 μM test compound; wells without enzyme = 100% inhibition; read-out: HDAC9 inhibitory rate (%) (1 μM). The procedure: HDAC9 Enzyme Inhibitory Assay
Enzyme was prepared by transducing full length HDAC9 gene into Sf-9 insect cells and purifying by Ni-NTA affinity column, and HDAC9 enzyme inhibitory activity was evaluated. Enzymes were used after preserved at −70° C. HDAC9 enzyme inhibitory activity of the test compound was measured using HDAC-Glo class IIa (Promega) according to the following experimental method. The test compound diluted with assay buffer (24 mM Tris-HCl (pH 7.5), 1 mM MgCl2, 0.35 mM KCl, 135 mM NaCl, 0.6 mM Glutathione, 0.01% Tween-20) was added to a 384-well plate by each 2 μL. Then, HDAC9 enzyme solution diluted with assay buffer was added thereto by each 2 μL, and the plate was incubated at room temperature for 60 min. After incubated, HDAC substrate-Developer solution prepared according to Promega protocol was added to the 384-well plate by each 4 μL, and the enzyme reaction was started. After reacting at room temperature for 20 min, luminescence level was measured using plate reader Envision (PerkinElmer). The inhibitory activity of each compound was calculated as a relative activity value when luminescence level in wells without enzyme is considered as 100% inhibition.

T2 sequence (Q13547 whole entry): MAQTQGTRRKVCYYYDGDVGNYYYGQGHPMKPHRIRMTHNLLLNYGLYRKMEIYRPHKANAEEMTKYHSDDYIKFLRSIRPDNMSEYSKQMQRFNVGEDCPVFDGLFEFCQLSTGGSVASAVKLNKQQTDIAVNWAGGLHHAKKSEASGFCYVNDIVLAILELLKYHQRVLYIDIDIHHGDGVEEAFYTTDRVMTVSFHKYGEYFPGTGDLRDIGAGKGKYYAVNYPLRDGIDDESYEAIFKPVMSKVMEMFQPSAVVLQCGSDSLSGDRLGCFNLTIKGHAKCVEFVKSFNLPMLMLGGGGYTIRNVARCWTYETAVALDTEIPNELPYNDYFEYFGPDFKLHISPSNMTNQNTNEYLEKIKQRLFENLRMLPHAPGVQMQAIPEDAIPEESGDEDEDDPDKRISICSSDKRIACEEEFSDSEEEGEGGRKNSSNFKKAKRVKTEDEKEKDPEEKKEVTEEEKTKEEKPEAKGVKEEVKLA
T3 sequence (Q9UKV0 whole entry, species assumed): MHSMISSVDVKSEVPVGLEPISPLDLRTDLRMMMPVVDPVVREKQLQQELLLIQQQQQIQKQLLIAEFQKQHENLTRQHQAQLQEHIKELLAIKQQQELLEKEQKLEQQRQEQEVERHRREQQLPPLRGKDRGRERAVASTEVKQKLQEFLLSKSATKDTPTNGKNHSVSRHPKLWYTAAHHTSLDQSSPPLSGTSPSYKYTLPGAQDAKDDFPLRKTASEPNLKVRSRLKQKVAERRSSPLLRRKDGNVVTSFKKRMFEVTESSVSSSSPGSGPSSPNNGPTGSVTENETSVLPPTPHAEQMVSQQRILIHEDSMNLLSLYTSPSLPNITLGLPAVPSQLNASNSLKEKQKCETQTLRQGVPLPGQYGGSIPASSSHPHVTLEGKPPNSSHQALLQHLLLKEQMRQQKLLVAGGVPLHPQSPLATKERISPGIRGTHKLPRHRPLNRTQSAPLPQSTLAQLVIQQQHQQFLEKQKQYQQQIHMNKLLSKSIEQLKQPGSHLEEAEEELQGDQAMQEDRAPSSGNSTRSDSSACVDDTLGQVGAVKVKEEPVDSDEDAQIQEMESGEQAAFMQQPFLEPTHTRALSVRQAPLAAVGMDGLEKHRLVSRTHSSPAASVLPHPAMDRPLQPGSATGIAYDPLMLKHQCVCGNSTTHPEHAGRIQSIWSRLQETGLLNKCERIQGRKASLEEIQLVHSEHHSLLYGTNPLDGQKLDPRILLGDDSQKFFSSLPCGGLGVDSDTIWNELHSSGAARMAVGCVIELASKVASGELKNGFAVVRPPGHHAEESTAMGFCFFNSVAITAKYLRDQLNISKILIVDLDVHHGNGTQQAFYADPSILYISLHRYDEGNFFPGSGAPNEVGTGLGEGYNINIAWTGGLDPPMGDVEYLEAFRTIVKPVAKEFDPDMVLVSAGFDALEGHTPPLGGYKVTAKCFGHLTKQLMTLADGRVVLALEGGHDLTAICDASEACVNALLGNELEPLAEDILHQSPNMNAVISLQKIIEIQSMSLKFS

Turning to `CS(=O)(=O)c1ccc(CN2Cc3ccc(-c4noc(C(F)(F)F)n4)cc3C2=O)cc1` [Example 30, 2-(4-(methylsulfonyl)benzyl)-6-(5-(trifluoromethyl)-1,2,4-oxadiazol-3-yl)isoindolin-1-one], the inhibition at 1 µM came out at 94% on HDAC6 enzyme, 30% at HDAC1 enzyme and 83% at HDAC9 enzyme.
As for `COc1cc(F)ccc1[C@H](C)N1Cc2ccc(-c3noc(C(F)(F)F)n3)cc2C1=O` [Example 20, 2-((S)-1-(4-fluoro-2-methoxyphenyl)ethyl)-6-(5-(trifluoromethyl)-1,2,4-oxadiazol-yl)isoindolin-1-one], the inhibition at 1 µM at HDAC6 enzyme worked out at 95%; on HDAC1 enzyme, 16%; at HDAC9 enzyme, 66%.
The like results for `O=C1c2cc(-c3noc(C(F)(F)F)n3)ccc2CN1Cc1ccccc1Cl` [Example 25, 2-(2-chlorobenzyl)-6-(5-(trifluoromethyl)-1,2,4-oxadiazol-3-yl)isoindolin-1-one] were, in that order, 94%, 11% and 64%.
Consider `C[C@H](c1cccc2ccccc12)N1Cc2ccc(-c3noc(C(F)(F)F)n3)cc2C1=O` [Example 23, 2-((1R)-1-(1-naphthyl)ethyl)-6-(5-(trifluoromethyl)-1,2,4-oxadiazol-3-yl)isoindolin-1-one], for which the inhibition at 1 µM was 99% at HDAC6 enzyme, 4% at HDAC1 enzyme and 28% at HDAC9 enzyme.
With `C[C@H](c1ccccc1)N1Cc2ncc(-c3noc(C(F)(F)F)n3)cc2C1=O` [Example 39, 6-((1R)-1-phenylethyl)-3-(5-(trifluoromethyl)-1,2,4-oxadiazol-3-yl)-6,7-dihydro-5H-pyrrolo[3,4-b]pyridin-5-one], the inhibition at 1 µM at HDAC6 enzyme worked out at 99%; at HDAC1 enzyme it was 55%; at HDAC9 enzyme, 90%.
With `O=C1c2cc(-c3noc(C(F)(F)F)n3)ccc2CN1Cc1ccccn1` [Example 32], the values for the inhibition at 1 µM on HDAC6 enzyme, at HDAC1 enzyme and at HDAC9 enzyme were 99%, 13% and 77%, respectively.
With `O=C1c2cc(-c3noc(C(F)(F)F)n3)ccc2CN1Cc1nccs1` [Example 36, 2-(1,3-thiazol-2-ylmethyl)-6-(5-(trifluoromethyl)-1,2,4-oxadiazol-3-yl)isoindolin-1-one], the inhibition at 1 µM at HDAC6 enzyme worked out at 98%; at HDAC1 enzyme it was 15%; on HDAC9 enzyme, 81%.
With `Cc1cc(CN2Cc3ccc(-c4noc(C(F)(F)F)n4)cc3C2=O)nn1C` [Example 38, 2-((1,5-dimethyl-1H-pyrazol-3-yl)methyl)-6-(5-(trifluoromethyl)-1,2,4-oxadiazol-3-yl)isoindolin-1-one], the inhibition at 1 µM is 97% at HDAC6 enzyme, 23% on HDAC1 enzyme and 85% at HDAC9 enzyme.
As for `CN(c1ncccc1CN1Cc2ccc(-c3noc(C(F)(F)F)n3)cc2C1=O)S(C)(=O)=O` [Example 35, N-methyl-N-(3-((1-oxo-6-(5-(trifluoromethyl)-1,2,4-oxadiazol-3-yl)-1,3-dihydro-2H-isoindol-2-yl)methyl)pyridin-2-yl)methanesulfonamide], the inhibition at 1 µM on HDAC6 enzyme stood at 97%; at HDAC1 enzyme, 6%; on HDAC9 enzyme, 61%.
Take `O=C1c2cc(-c3noc(C(F)(F)F)n3)ccc2CN1Cc1ccccc1` [Example 6, 2-benzyl-6-(5-(trifluoromethyl)-1,2,4-oxadiazol-3-yl)isoindolin-1-one]: the figures for the inhibition at 1 µM on HDAC6 enzyme, at HDAC1 enzyme and on HDAC9 enzyme were 102%, 24% and 82%, respectively.
For the molecule `COc1cccc([C@H](C)N2Cc3ccc(-c4noc(C(F)(F)F)n4)cc3C2=O)c1` [Example 19, 2-((1S)-1-(3-methoxyphenyl)ethyl)-6-(5-(trifluoromethyl)-1,2,4-oxadiazol-3-yl)isoindolin-1-one], the inhibition at 1 µM was 99% at HDAC6 enzyme, 29% on HDAC1 enzyme and 87% on HDAC9 enzyme.
Taken in the same sequence, the figures for `COc1ncccc1CN1Cc2ccc(-c3noc(C(F)(F)F)n3)cc2C1=O` [Example 33, 2-((2-methoxypyridin-3-yl)methyl)-6-(5-(trifluoromethyl)-1,2,4-oxadiazol-3-yl)isoindolin-1-one] were 98%, 19% and 77%.
Taken in the same sequence, the figures for `COc1cccc(CN2Cc3ccc(-c4noc(C(F)(F)F)n4)cc3C2=O)c1` [Example 9, 2-(3-methoxybenzyl)-6-(5-(trifluoromethyl)-1,2,4-oxadiazol-3-yl)isoindolin-1-one] were 98%, 31% and 81%.
The like results for `C[C@@H](c1ccccc1F)N1Cc2ccc(-c3noc(C(F)(F)F)n3)cc2C1=O` [Example 15, 2-((1S)-1-(2-fluorophenyl)ethyl)-6-(5-(trifluoromethy)-1,2,4-oxadiazol-3-yl)isoindolin-1-one] were, in that order, 95%, 15% and 79%.
With `O=C1c2cc(-c3noc(C(F)(F)F)n3)ccc2CN1Cc1ccccc1OC(F)(F)F` [Example 26, 2-(2-(trifluoromethoxy)benzyl)-6-(5-(trifluoromethyl)-1,2,4-oxadiazol-3-yl)isoindolin-1-one], the inhibition at 1 µM was 95% on HDAC6 enzyme, 8% on HDAC1 enzyme and 58% on HDAC9 enzyme.
For `C[C@H](c1ccccc1)N1Cc2ccc(-c3noc(C(F)(F)F)n3)cc2C1=O` [Example 7, 2-((1R)-1-phenylethyl)-6-(5-(trifluoromethyl)-1,2,4-oxadiazol-3-yl)isoindolin-1-one], the inhibition at 1 µM was 95% on HDAC6 enzyme, 17% on HDAC1 enzyme and 78% at HDAC9 enzyme.
Taken in the same sequence, the figures for `COc1ccccc1CN1Cc2ccc(-c3noc(C(F)(F)F)n3)cc2C1=O` [Example 12, 2-(2-methoxybenzyl)-6-(5-(trifluoromethyl)-1,2,4-oxadiazol-3-yl)isoindolin-1-one] were 96%, 23% and 76%.

The values above are taken from US10357484B2, “Heterocyclic compound” (Takeda Pharmaceutical Company Limited, priority 2015, dated 2019).
